{"source": "patent US4388235A", "about": "“Synthesis of peptides” (Armour Pharmaceutical Company, priority 1982, dated 1983)", "assay": "biological potency assay of the purified product (MRC units)", "assay_type": "in vivo", "settings": "freeze-dried product of Example 1", "note": "Positions of bridges follow the written chain, without caps; N, C: chain ends. Residues, ends and D or L forms follow the SMILES beside them.", "data": [{"smiles": "CC(C)C[C@H](NC(=O)[C@H](CCCCN)NC(=O)CNC(=O)[C@H](CC(C)C)NC(=O)[C@@H](NC(=O)[C@@H]1CSSC[C@H](N)C(=O)N[C@@H](CO)C(=O)N[C@@H](CC(N)=O)C(=O)N[C@@H](CC(C)C)C(=O)N[C@@H](CO)C(=O)N[C@@H]([C@@H](C)O)C(=O)N1)C(C)C)C(=O)N[C@@H](CO)C(=O)N[C@@H](CCC(N)=O)C(=O)N[C@@H](CCC(=O)O)C(=O)N[C@@H](Cc1c[nH]cn1)C(=O)N[C@@H](CCCCN)C(=O)N[C@@H](CC(C)C)C(=O)N[C@@H](CCC(N)=O)C(=O)N[C@H](C(=O)N[C@@H](Cc1ccc(O)cc1)C(=O)N1CCC[C@H]1C(=O)N[C@@H](CCCNC(=N)N)C(=O)N[C@H](C(=O)N[C@@H](CC(N)=O)C(=O)N[C@H](C(=O)NCC(=O)N[C@@H](CO)C(=O)NCC(=O)N[C@H](C(=O)N1CCC[C@H]1C(N)=O)[C@@H](C)O)[C@@H](C)O)[C@@H](C)O)[C@@H](C)O", "note": "[des Leu^16 -SCT, Des-Leu^16 -salmon calcitonin] (H-CSNLSTCVLGKLSQEHKLQTYPRTNTGSGTP-NH2; disulfide 1-7)", "values": [{"measurement": "assayed potency", "value": 580, "unit": "MRC units per mg"}]}]}
